“And” between values parts separate entries of the source, which are not always exact repeats. Identical values can stand only once.
Experiments:
[1] = tested on: NCI-H460; assay: cells; type: functional, cell-based, Homo sapiens;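 note: cell viability assay scoring growth inhibition of human NCI-H460 cells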
Description: SANGER: Inhibition of human NCI-H460 cell growth in a cell viability assay.

[2] = tested on: KGN; assay: cells; type: functional, cell-based, Homo sapiens;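 note: growth inhibition of KGN cells, read out with a cell viability assay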
Description: SANGER: Inhibition of human KGN cell growth in a cell viability assay.

[3] = tested on: NCI-H28; assay: cells; type: functional, cell-based, Homo sapiens;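 note: growth inhibition of human NCI-H28 cells, read out as cell viability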
Description: SANGER: Inhibition of human NCI-H28 cell growth in a cell viability assay.

[4] = tested on: CAL-39; assay: cells; type: functional, cell-based, Homo sapiens;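 note: cell viability assay measuring growth inhibition of CAL-39 cells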
Description: SANGER: Inhibition of human CAL-39 cell growth in a cell viability assay.

[5] = tested on: C8166; assay: cells; type: functional, cell-based; conditions: Homo sapiens;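 note: growth inhibition of human C8166 cells measured by a cell viability assay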
Description: SANGER: Inhibition of human C8166 cell growth in a cell viability assay.

[6] = tested on: MKN-28; assay: cells; type: functional, cell-based, Homo sapiens;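 note: cell viability assay read-out, IC50 reflects suppression of growth of human MKN-28 cells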
Description: SANGER: Inhibition of human MKN28 cell growth in a cell viability assay.

[7] = tested on: BEN; assay: cells; type: functional, cell-based, Homo sapiens;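 note: growth inhibition of the BEN cell line, read out with a cell viability assay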
Description: SANGER: Inhibition of human BEN cell growth in a cell viability assay.

[8] = tested on: SK-OV-3; assay: cells; type: functional, cell-based, Homo sapiens;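 note: growth inhibition of SK-OV-3 human cells, read out with a cell viability assay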
Description: SANGER: Inhibition of human SK-OV-3 cell growth in a cell viability assay.

[9] = tested on: KYSE-70 cell line; assay: cells; type: functional, cell-based, Homo sapiens;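 note: cell viability assay read-out, with IC50 expressing suppression of KYSE-70 cell growth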
Description: SANGER: Inhibition of human KYSE-70 cell growth in a cell viability assay.

[10] = tested on: HCC70; assay: cells; type: functional, cell-based, Homo sapiens;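 note: cell viability assay measuring how strongly the compound suppresses proliferation of HCC70 cells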
Description: SANGER: Inhibition of human HCC70 cell growth in a cell viability assay.

[11] = tested on: RH-18; assay: cells; type: functional, cell-based; conditions: Homo sapiens, Rh18;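 note: growth inhibition of human RH-18 cells, read out with a cell viability assay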
Description: SANGER: Inhibition of human RH-18 cell growth in a cell viability assay.

[12] = tested on: SK-N-AS; assay: cells; type: functional, cell-based, Homo sapiens;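 note: growth inhibition of human SK-N-AS cells, measured with a cell viability assay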
Description: SANGER: Inhibition of human SK-N-AS cell growth in a cell viability assay.

[13] = tested on: MDA-MB-361; assay: cells; type: functional, cell-based, Homo sapiens
[14] = tested on: SW900; assay: cells; type: functional, cell-based; conditions: Homo sapiens;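 note: IC50 is the concentration that inhibits SW900 cell growth, measured by a cell viability assay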
Description: SANGER: Inhibition of human SW900 cell growth in a cell viability assay.

[15] = tested on: KARPAS-299; assay: cells; type: functional, cell-based; conditions: Homo sapiens
Description: SANGER: Inhibition of human KARPAS-299 cell growth in a cell viability assay.

[16] = tested on: NCI-H1666; assay: cells; type: functional, cell-based; conditions: Homo sapiens;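 note: growth inhibition of the cell line, read out with a cell viability assay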
Description: SANGER: Inhibition of human NCI-H1666 cell growth in a cell viability assay.

[17] = tested on: 8-MG-BA; assay: cells; type: functional, cell-based, Homo sapiens;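 note: growth inhibition of 8-MG-BA cells, read out with a cell viability assay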
Description: SANGER: Inhibition of human 8-MG-BA cell growth in a cell viability assay.

[18] = tested on: NCI-H2030; assay: cells; type: functional, cell-based, Homo sapiens;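 note: growth inhibition of human NCI-H2030 cells, read out by a cell viability assay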
Description: SANGER: Inhibition of human NCI-H2030 cell growth in a cell viability assay.

[19] = tested on: COLO-679; assay: cells; type: functional, cell-based, Homo sapiens
Description: SANGER: Inhibition of human COLO-679 cell growth in a cell viability assay.

[20] = tested on: D-566MG; assay: cells; type: functional, cell-based; conditions: Homo sapiens
[21] = tested on: CAS-1; assay: cells; type: functional, cell-based, Homo sapiens;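 note: growth inhibition of CAS-1 cells, measured with a cell viability assay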
Description: SANGER: Inhibition of human CAS-1 cell growth in a cell viability assay.

[22] = tested on: A549; assay: cells; type: functional, cell-based; conditions: Homo sapiens;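 note: growth inhibition of A549 cells, read out with a cell viability assay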
Description: SANGER: Inhibition of human A549 cell growth in a cell viability assay.

[23] = tested on: KNS-62; assay: cells; type: functional, cell-based; conditions: Homo sapiens;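 note: inhibition of cell growth, read out with a cell viability assay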
Description: SANGER: Inhibition of human KNS-62 cell growth in a cell viability assay.

[24] = tested on: EFO-21; assay: cells; type: functional, cell-based, Homo sapiens;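 note: growth inhibition of EFO-21 cells measured with a viability assay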
Description: SANGER: Inhibition of human EFO-21 cell growth in a cell viability assay.

[25] = tested on: OS-RC-2; assay: cells; type: functional, cell-based, Homo sapiens;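 note: growth inhibition of human OS-RC-2 cells, measured by a cell viability assay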
Description: SANGER: Inhibition of human OS-RC-2 cell growth in a cell viability assay.

[26] = tested on: EW-22; assay: cells; type: functional, cell-based; conditions: Homo sapiens;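 note: growth inhibition of the EW-22 cell line, measured with a cell viability readout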
Description: SANGER: Inhibition of human EW-22 cell growth in a cell viability assay.

[27] = tested on: NCI-H2029; assay: cells; type: functional, cell-based; conditions: Homo sapiens;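 note: Read-out is a viability assay on the cultured cells, and IC50 is the concentration that suppresses cell growth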
Description: SANGER: Inhibition of human NCI-H2029 cell growth in a cell viability assay.

[28] = tested on: EPLC-272H; assay: cells; type: functional, cell-based; conditions: Homo sapiens
Description: SANGER: Inhibition of human EPLC-272H cell growth in a cell viability assay.

[29] = tested on: TI-73; assay: cells; type: functional, cell-based; conditions: Homo sapiens;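 note: cell viability assay measuring how much compounds suppress growth of the cultured cell line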
Description: SANGER: Inhibition of human TI-73 cell growth in a cell viability assay.

[30] = tested on: K5; assay: cells; type: functional, cell-based, Homo sapiens
Description: SANGER: Inhibition of human K5 cell growth in a cell viability assay.

[31] = tested on: ECC4; assay: cells; type: functional, cell-based; conditions: Homo sapiens;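 note: growth inhibition of ECC4 cells, read out with a cell viability assay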
Description: SANGER: Inhibition of human ECC4 cell growth in a cell viability assay.

[32] = tested on: LU-165; assay: cells; type: functional, cell-based; conditions: Homo sapiens
Description: SANGER: Inhibition of human LU-165 cell growth in a cell viability assay.

[33] = tested on: NCI-H716; assay: cells; type: functional, cell-based; conditions: Homo sapiens;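 note: growth inhibition of human NCI-H716 cells, measured by a cell viability assay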
Description: SANGER: Inhibition of human NCI-H716 cell growth in a cell viability assay.

[34] = tested on: SK-MM-2; assay: cells; type: functional, cell-based; conditions: Homo sapiens;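 note: growth inhibition of human SK-MM-2 cells, read out with a cell viability assay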
Description: SANGER: Inhibition of human SK-MM-2 cell growth in a cell viability assay.

[35] = tested on: NCI-H345; assay: cells; type: functional, cell-based; conditions: Homo sapiens;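 note: growth inhibition of NCI-H345 cells measured with a cell viability assay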
Description: SANGER: Inhibition of human NCI-H345 cell growth in a cell viability assay.

[36] = tested on: Raji; assay: cells; type: functional, cell-based; conditions: Homo sapiens;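 note: cell viability assay measuring inhibition of Raji cell growth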
Description: SANGER: Inhibition of human Raji cell growth in a cell viability assay.

[37] = tested on: BC-3; assay: cells; type: functional, cell-based; conditions: Homo sapiens;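 note: cell viability assay measuring growth inhibition of human BC-3 cells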
Description: SANGER: Inhibition of human BC-3 cell growth in a cell viability assay.

[38] = tested on: K052; assay: cells; type: functional, cell-based; conditions: Homo sapiens;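 note: Read-out from a cell viability assay, IC50 reflecting suppression of K052 cell growth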
Description: SANGER: Inhibition of human K052 cell growth in a cell viability assay.

[39] = tested on: MEL-JUSO; assay: cells; type: functional, cell-based, Homo sapiens; conditions: mel-juso;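 note: growth inhibition of human MEL-JUSO cells, read out with a cell viability assay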
Description: SANGER: Inhibition of human MEL-JUSO cell growth in a cell viability assay.

[40] = tested on: YT; assay: cells; type: functional, cell-based; conditions: Homo sapiens
Description: SANGER: Inhibition of human YT cell growth in a cell viability assay.

[41] = tested on: MONO-MAC-6; assay: cells; type: functional, cell-based; conditions: Homo sapiens;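 note: cell viability assay measuring growth inhibition of human MONO-MAC-6 cells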
Description: SANGER: Inhibition of human MONO-MAC-6 cell growth in a cell viability assay.

[42] = tested on: U-698-M; assay: cells; type: functional, cell-based; conditions: Homo sapiens
Description: SANGER: Inhibition of human U-698-M cell growth in a cell viability assay.

[43] = tested on: NCI-H2227; assay: cells; type: functional, cell-based; conditions: Homo sapiens;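 note: growth inhibition of the human cell line, read out with a cell viability assay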
Description: SANGER: Inhibition of human NCI-H2227 cell growth in a cell viability assay.

[44] = tested on: NALM-6; assay: cells; type: functional, cell-based; conditions: Homo sapiens;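 note: growth inhibition of NALM-6 cells, read out with a cell viability assay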
Description: SANGER: Inhibition of human NALM-6 cell growth in a cell viability assay.

[45] = tested on: GDM-1; assay: cells; type: functional, cell-based; conditions: Homo sapiens;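 note: cell viability readout used to measure growth inhibition of human GDM-1 cells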
Description: SANGER: Inhibition of human GDM-1 cell growth in a cell viability assay.

[46] = tested on: IM-9; assay: SANGER: Inhibition of human IM-9 cell growth in a cell viability assay.; type: functional, cell-based
[47] = tested on: NCI-H187; assay: cells; type: functional, cell-based; conditions: Homo sapiens;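 note: growth inhibition of NCI-H187 cells, read out as cell viability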
Description: SANGER: Inhibition of human NCI-H187 cell growth in a cell viability assay.

[48] = tested on: SNU-C1; assay: cells; type: functional, cell-based; conditions: Homo sapiens;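 note: growth inhibition of SNU-C1 human cells, read out by a cell viability assay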
Description: SANGER: Inhibition of human SNU-C1 cell growth in a cell viability assay.

[49] = tested on: MHH-CALL-2; assay: cells; type: functional, cell-based; conditions: Homo sapiens;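 note: growth inhibition of the cell line, read out in a cell viability assay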
Description: SANGER: Inhibition of human MHH-CALL-2 cell growth in a cell viability assay.

[50] = tested on: NCI-H1963; assay: cells; type: functional, cell-based; conditions: Homo sapiens;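 note: cell growth inhibition of the human line, determined with a cell viability assay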
Description: SANGER: Inhibition of human NCI-H1963 cell growth in a cell viability assay.

[51] = tested on: P31-FUJ; assay: cells; type: functional, cell-based; conditions: Homo sapiens;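 note: growth inhibition of P31-FUJ cells, read out with a viability assay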
Description: SANGER: Inhibition of human P31-FUJ cell growth in a cell viability assay.

[52] = tested on: THP-1; assay: cells; type: functional, cell-based; conditions: Homo sapiens;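 note: growth inhibition of THP-1 cells, read out via a cell viability assay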
Description: SANGER: Inhibition of human THP-1 cell growth in a cell viability assay.

[53] = tested on: RL; assay: cells; type: functional, cell-based; conditions: Homo sapiens
Description: SANGER: Inhibition of human RL cell growth in a cell viability assay.

[54] = tested on: NCI-H2141; assay: cells; type: functional, cell-based; conditions: Homo sapiens;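 note: growth inhibition of human NCI-H2141 cells, read out with a cell viability assay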
Description: SANGER: Inhibition of human NCI-H2141 cell growth in a cell viability assay.

[55] = tested on: WSU-NHL; assay: cells; type: functional, cell-based; conditions: Homo sapiens;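 note: growth inhibition of human WSU-NHL cells, read out with a cell viability assay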
Description: SANGER: Inhibition of human WSU-NHL cell growth in a cell viability assay.

[56] = tested on: REH; assay: cells; type: functional, cell-based; conditions: Homo sapiens;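 note: growth inhibition of REH cells determined with a cell viability read-out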
Description: SANGER: Inhibition of human REH cell growth in a cell viability assay.

[57] = tested on: OPM-2; assay: cells; type: functional, cell-based; conditions: Homo sapiens;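 note: growth of OPM-2 cells measured with a viability assay, IC50 for suppression of proliferation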
Description: SANGER: Inhibition of human OPM-2 cell growth in a cell viability assay.

[58] = tested on: NCI-H524; assay: cells; type: functional, cell-based; conditions: Homo sapiens;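 note: growth inhibition of human NCI-H524 cells, read out through a cell viability assay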
Description: SANGER: Inhibition of human NCI-H524 cell growth in a cell viability assay.

[59] = tested on: CESS; assay: SANGER: Inhibition of human CESS cell growth in a cell viability assay.; type: functional, cell-based

Measured: IC50

COc1cc(F)c(F)c(Nc2ccc(I)cc2F)c1NS(=O)(=O)C1(CC(O)CO)CC1 (stereo not drawn)
4.27 µM: [20]
> 5 µM: [3]; Homo sapiens, NCI-H28 | [5] | [6]; Homo sapiens, MKN-28 | [7]; Homo sapiens, BEN | [8]; Homo sapiens, SK-OV-3 | [9]; Homo sapiens, KYSE-70 | [10]; Homo sapiens, HCC70 | [11] | [13]; Homo sapiens, MDA-MB-361 | [14] | [15] | [17]; Homo sapiens, 8-MG-BA | [18]; Homo sapiens, NCI-H2030 | [21]; Homo sapiens, CAS-1 | [24]; Homo sapiens, EFO-21 | [25]; Homo sapiens, OS-RC-2 | [26] | [27]
0.0433 µM: [12]; Homo sapiens, SK-N-AS
0.116 µM: [22]
0.415 µM: [4]; Homo sapiens, CAL-39
1.83 µM: [29]
0.889 µM: [16]
2.52 µM: [1]; Homo sapiens, NCI-H460
1.87 µM: [23]
0.185 µM: [28]
0.153 µM: [19]; Homo sapiens, COLO-679
2.8 µM: [2]; Homo sapiens, KGN

O=C1N=C(NCc2cccs2)S/C1=C\c1ccc2ncccc2c1
> 5 µM: [1]; Homo sapiens, NCI-H460 | [2]; Homo sapiens, KGN | [3]; Homo sapiens, NCI-H28 | [4]; Homo sapiens, CAL-39 | [5] | [6]; Homo sapiens, MKN-28 | [7]; Homo sapiens, BEN | [8]; Homo sapiens, SK-OV-3 | [9]; Homo sapiens, KYSE-70 | [10]; Homo sapiens, HCC70 | [11] | [12]; Homo sapiens, SK-N-AS | [13]; Homo sapiens, MDA-MB-361 | [14] | [15] | [16] | [18]; Homo sapiens, NCI-H2030 | [19]; Homo sapiens, COLO-679 | [20] | [30]; Homo sapiens, K5 | [21]; Homo sapiens, CAS-1 | [22] | [23] | [24]; Homo sapiens, EFO-21 | [25]; Homo sapiens, OS-RC-2 | [26] | [27] | [28] | [29]
3.14 µM: [17]; Homo sapiens, 8-MG-BA

Cc1cc([C@@H](C)Nc2ccccc2C(=O)O)c2nc(N3CCOCC3)cc(=O)n2c1 [AZD-6482]
1.2 µM and 4.67 µM: [8]; sk-ov-3
2.24 µM: [45]
5.04 µM and > 5.12 µM: [24]; efo-21
4.8 µM: [59]
0.121 µM: [40]
2.69 µM: [18]; nci-h2030
0.705 µM: [44]
1.66 µM and > 5.12 µM: [10]; hcc70
0.624 µM and > 5.12 µM: [25]; os-rc-2
3.53 µM: [13]; Homo sapiens, MDA-MB-361
> 5.12 µM: [1]; nci-h460 | [31] | [32] | [33] | [34] | [35] | [36] | [3]; nci-h28 | [37] | [38] | [5] | [39] | [6]; mkn-28 | [7]; ben | [9]; kyse-70 | [11] | [41] | [12]; Homo sapiens, SK-N-AS | [12]; sk-n-as | [42] | [13]; mda-mb-361 | [43] | [14] | [15] | [16] | [17]; 8-mg-ba | [19]; Homo sapiens, COLO-679 | [19]; colo-679 | [30]; Homo sapiens, K5 | [30]; k5 | [21]; Homo sapiens, CAS-1 | [21]; cas-1 | [22] | [23] | [46] | [47] | [48] | [26] | [49] | [50] | [27] | [51] | [52] | [53] | [54] | [55] | [28] | [56] | [57] | [58]
4.32 µM and > 5.12 µM: [2]; kgn
2 µM and > 5.12 µM: [4]; cal-39
2.9 µM: [18]; Homo sapiens, NCI-H2030
3.07 µM: [20]
